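Cultured in 96-well plates, cells were exposed to test compound for 48 hours across five concentrations. GI50: concentration for 50% inhibition of growth. TGI is the concentration that stops growth completely.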
Assays:
Test in all cases: DTP human tumour cell line panel, 48 h
[1] = tested on: HL-60(TB) leukemia
[2] = tested on: HCT-15 colon
[3] = tested on: SN12C renal
[4] = tested on: K-562 leukemia
[5] = tested on: HS 578T breast
[6] = tested on: NCI/ADR-RES ovarian
[7] = tested on: MALME-3M melanoma
[8] = tested on: KM12 colon
[9] = tested on: UACC-257 melanoma
[10] = tested on: U251 CNS
[11] = tested on: 786-0 renal
[12] = tested on: IGROV1 ovarian
[13] = tested on: BT-549 breast
[14] = tested on: SNB-19 CNS
[15] = tested on: SF-295 CNS
[16] = tested on: SF-268 CNS
[17] = tested on: NCI-H522 lung
[18] = tested on: EKVX NSCLC
[19] = tested on: LOX IMVI melanoma
[20] = tested on: COLO 205 colon
[21] = tested on: OVCAR-8 ovarian
[22] = tested on: HOP-62 NSCLC
[23] = tested on: TK-10 renal
[24] = tested on: UACC-62 melanoma
[25] = tested on: HT29 colon
[26] = tested on: NCI-H460 lung
[27] = tested on: SK-MEL-28 melanoma
[28] = tested on: MCF7 breast
[29] = tested on: RXF 393 renal
[30] = tested on: MDA-MB-435
[31] = tested on: HOP-92 NSCLC
[32] = tested on: NCI-H226 lung
[33] = tested on: DU-145 prostate
[34] = tested on: SK-MEL-2 melanoma
[35] = tested on: CAKI-1 renal
[36] = tested on: A549 NSCLC
[37] = tested on: UO-31 renal
[38] = tested on: SF-539 CNS
[39] = tested on: PC-3 prostate
[40] = tested on: SW-620 colon
[41] = tested on: SK-MEL-5 melanoma
[42] = tested on: HCT-116 colon
[43] = tested on: M14 melanoma
[44] = tested on: RPMI-8226 leukemia
[45] = tested on: A498 renal
[46] = tested on: HCC-2998 colon
[47] = tested on: SK-OV-3 ovarian
[48] = tested on: OVCAR-5 ovarian
[49] = tested on: ACHN renal
[50] = tested on: SNB-75 CNS
[51] = tested on: SR leukemia
[52] = tested on: MDA-MB-231 breast
[53] = tested on: OVCAR-4 ovarian

In the case of `COc1cccc(N2CCN(C3=C(Cl)C(=O)c4ncccc4C3=O)CC2)c1`, the GI50 [1] is reported as 1.75 µM, the TGI [1] is reported as 4.47 µM and the GI50 [2] is reported as 2.05 µM. For the same compound, the TGI [2] was 5.6 µM, the GI50 [3] was 5.19 µM and the TGI [3] was 20.2 µM. The GI50 [4] was 2.3 µM, the TGI [4] was 6.28 µM and the GI50 [5] was 10 µM. It also gave a TGI [5] of 51.5 µM, a GI50 [6] of 3.36 µM and a TGI [6] of 15.5 µM. It also gave a GI50 [7] of 1.84 µM, a TGI [7] of 4.06 µM and a GI50 [8] of 20.3 µM. It also gave a TGI [8] of 41.7 µM, a GI50 [9] of 2.12 µM and a TGI [9] of 5.23 µM. It also gave a GI50 [10] of 5.46 µM, a TGI [10] of 19.5 µM and a GI50 [11] of 5.02 µM. It also gave a TGI [11] of 16.3 µM, a GI50 [12] of 2.93 µM and a TGI [12] of 9.52 µM. For the same compound, the GI50 [13] was 6.75 µM, the TGI [13] was 18.3 µM and the GI50 [14] was 16.2 µM. For the same compound, the TGI [14] was 32.9 µM, the GI50 [15] was 12.5 µM and the TGI [15] was 26.2 µM. The GI50 [16] was 13.1 µM, the TGI [16] was 29.6 µM and the GI50 [17] was 1.73 µM. For the same compound, the TGI [17] was 3.39 µM, the GI50 [18] was 2.05 µM and the TGI [18] was 4.42 µM. For the same compound, the GI50 [19] was 1.62 µM, the TGI [19] was 3.12 µM and the GI50 [20] was 1.87 µM. The TGI [20] was 4.01 µM, the GI50 [21] was 2 µM and the TGI [21] was 5.01 µM. It also gave a GI50 [22] of 18.5 µM, a TGI [22] of 33.2 µM and a GI50 [23] of 4.18 µM. It also gave a TGI [23] of 13.2 µM, a GI50 [24] of 3.48 µM and a TGI [24] of 12.3 µM. The GI50 [25] was 12.2 µM, the TGI [25] was 28.6 µM and the GI50 [26] was 7.26 µM. The TGI [26] was 26.7 µM, the GI50 [27] was 3.3 µM and the TGI [27] was 9.58 µM. It also gave a GI50 [28] of 1.98 µM, a TGI [28] of 5.86 µM and a GI50 [29] of 1.77 µM. For the same compound, the TGI [29] was 3.25 µM, the GI50 [30] was 1.79 µM and the TGI [30] was 3.34 µM. The GI50 [31] was 1.63 µM, the TGI [31] was 3.07 µM and the GI50 [32] was 14 µM. The TGI [32] was 31.9 µM, the GI50 [33] was 11.1 µM and the TGI [33] was 23.1 µM. For the same compound, the GI50 [34] was 6.25 µM, the TGI [34] was 19.3 µM and the GI50 [35] was 2.64 µM. For the same compound, the TGI [35] was 8.15 µM, the GI50 [36] was 15.5 µM and the TGI [36] was 33 µM. For the same compound, the GI50 [37] was 1.64 µM, the TGI [37] was 3.4 µM and the GI50 [38] was 11.4 µM. The TGI [38] was 23.6 µM, the GI50 [39] was 8.55 µM and the TGI [39] was 22.3 µM. The GI50 [40] was 1.64 µM, the TGI [40] was 3.32 µM and the GI50 [41] was 11.5 µM. For the same compound, the TGI [41] was 23.8 µM, the GI50 [42] was 1.73 µM and the TGI [42] was 3.18 µM. The GI50 [43] was 3.27 µM, the TGI [43] was 13 µM and the GI50 [44] was 2.27 µM. It also gave a TGI [44] of 5.92 µM, a GI50 [45] of 13.5 µM and a TGI [45] of 26.4 µM. It also gave a GI50 [46] of 12.1 µM, a TGI [46] of 25.5 µM and a GI50 [47] of 15.4 µM. The TGI [47] was 46.2 µM, the GI50 [48] was 15.4 µM and the TGI [48] was 30.3 µM. For the same compound, the GI50 [49] was 1.76 µM, the TGI [49] was 3.19 µM and the GI50 [50] was 11.8 µM. For the same compound, the TGI [50] was 24.7 µM, the GI50 [51] was 1.8 µM and the TGI [51] was 5.38 µM. The GI50 [52] was 1.68 µM, the TGI [52] was 3.2 µM and the GI50 [53] was 1.73 µM. It also gave a TGI [53] of 3.26 µM.
